Patent publication US20240174690A1, “ANNULATED 2-AMINO-3-CYANO THIOPHENES AND DERIVATIVES FOR THE TREATMENT OF CANCER” (BOEHRINGER INGELHEIM INTERNATIONAL GMBH, priority 2021, published 2024)

System: Caco-2 cell monolayers
Test: Caco-2 assay (permeability PappAB, PappBA, efflux ratio)
Assay type: in vitro ADME
Conditions: 10 μM test compound, pH 7.4
Outline: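 Confluent Caco-2 monolayers on filter supports, 0.25% BSA in both donor and receiver buffer; transport measured a-b and b-a. After 25-30 min preincubation at 37 °C, samples at 0, 30, 60, 90 min quantified by HPLC/MS/MS. Papp from receiver amount per time, filter area and initial donor concentration; efflux ratio = PappBA/PappAB.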

C[C@H](Oc1cc(-c2ccn(C)n2)nc(-c2onc3c2CCC[C@@]32CCCc3sc(N)c(C#N)c32)n1)[C@@H]1CCCN1C [I-21]
Caco PappAB (apical to basolateral): 5.1 ×10⁻⁶ cm/s
Caco ER (efflux ratio PappBA/PappAB): 6.8
